For test [1], the target named is T1, recombinant thioredoxin reductase 1 (TrxR1) (Homo sapiens, UniProt Q16881).
T1 sequence (Q16881 1-649): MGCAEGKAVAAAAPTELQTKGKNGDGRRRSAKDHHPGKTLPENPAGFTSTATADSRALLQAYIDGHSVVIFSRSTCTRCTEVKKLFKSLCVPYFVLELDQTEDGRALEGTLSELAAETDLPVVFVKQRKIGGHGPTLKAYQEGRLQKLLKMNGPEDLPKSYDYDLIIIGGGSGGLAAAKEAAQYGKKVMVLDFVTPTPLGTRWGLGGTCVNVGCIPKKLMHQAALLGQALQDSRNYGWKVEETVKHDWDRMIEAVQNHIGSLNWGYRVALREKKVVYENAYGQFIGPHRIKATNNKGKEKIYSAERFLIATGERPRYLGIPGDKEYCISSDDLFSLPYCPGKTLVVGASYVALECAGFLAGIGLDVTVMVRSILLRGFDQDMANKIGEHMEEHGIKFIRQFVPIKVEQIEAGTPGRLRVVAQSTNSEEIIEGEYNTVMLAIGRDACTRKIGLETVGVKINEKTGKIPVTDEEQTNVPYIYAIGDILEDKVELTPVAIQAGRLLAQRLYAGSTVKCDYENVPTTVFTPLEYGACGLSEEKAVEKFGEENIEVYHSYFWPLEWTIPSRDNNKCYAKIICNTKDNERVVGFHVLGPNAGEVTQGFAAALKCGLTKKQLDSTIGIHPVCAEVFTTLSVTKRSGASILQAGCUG
Nature of the test: Inhibition of recombinant TrxR1 (DTNB assay). It counts as biochemical. Here is the method:
(§1) Small molecule inhibition of recombinant thioredoxin reductase 1 (TrxR1) and gluthathione reductase (GR) was examined in 96-well plate format. 15 nM TrxR1 was incubated in the presence of 250 μM NADPH, 0.1 mg/ml BSA, and various concentrations of the compound of Example 1 (1% DMSO final) in 50 mM Tris (pH 7.5) and 2 mM EDTA buffer for 15 minutes. Following the incubation period, 2.5 mM DTNB was added to each well and the change in O.D. at 412 nm was followed. Percent activity was determined using DMSO vehicle and no TrxR1 (blank) controls. 2 nM GR was incubated in the presence of 250 μM NADPH, 0.1 mg/ml BSA, and various concentrations of compounds (1% DMSO final) in 50 mM Tris (pH 7.5) and 2 mM EDTA buffer for 15 minutes. Following the incubation period, 1 mM GSSG was added to each well and the change in O.D. at 340 nm was followed. Percent activity was determined using DMSO vehicle and no GR (blank) controls.

For test [2], the target named is T2, gluthathione reductase (GR) (Homo sapiens, UniProt P00390).
T2 sequence (P00390 44-522): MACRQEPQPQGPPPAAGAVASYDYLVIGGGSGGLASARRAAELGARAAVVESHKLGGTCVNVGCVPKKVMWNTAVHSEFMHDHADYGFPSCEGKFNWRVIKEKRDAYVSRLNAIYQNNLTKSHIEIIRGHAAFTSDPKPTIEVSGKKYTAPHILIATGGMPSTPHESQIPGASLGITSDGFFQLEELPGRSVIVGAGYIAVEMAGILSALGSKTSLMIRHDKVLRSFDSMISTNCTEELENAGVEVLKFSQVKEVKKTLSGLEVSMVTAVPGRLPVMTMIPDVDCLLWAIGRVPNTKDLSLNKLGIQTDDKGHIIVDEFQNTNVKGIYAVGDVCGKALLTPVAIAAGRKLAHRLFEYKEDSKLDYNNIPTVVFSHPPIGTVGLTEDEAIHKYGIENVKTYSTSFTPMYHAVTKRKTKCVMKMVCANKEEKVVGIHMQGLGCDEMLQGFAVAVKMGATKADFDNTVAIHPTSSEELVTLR
Nature of the test: Inhibition of recombinant GR (GSSG assay). The class given is biochemical. How it is done:
as §1

[3] abbreviates: Biological Example 1, 15 nM TrxR1, 250 μM NADPH, 15 minutes incubation, read-out: TrxR inhibition.
Where [4] appears, read: Biological Example 4, assays of Biological Example 1, read-out: TrxR Inhibition.
Setting [5] is: Biological Example 1, 2 nM GR, 250 μM NADPH, 15 minutes incubation.
[6] abbreviates: Biological Example 4, assays of Biological Example 1.

We go through ten compounds from US10881653B2, “Tricyclic compounds and their use in the treatment of cancer” (The United States of America, as represented by the …, priority 2015, dated 2021).

Structures can show the parent of a compound that is named as a salt. Where two headings read alike, the source gives them in different places. A value given as a limit tells only on which side of the number the result lay.

For `O=C1C=C[C@H]2C3C(=O)N(C4CCCCC4)C(=O)C3[C@@H]1N2Cc1ccccc1` (mixture of isomers) [Example 10, endo-11-Benzyl-4-cyclohexyl-4,11-diazatricyclo[5.3.1.0^2,6]undec-9-ene-3,5,8-trione Trifluoroacetate], the IC50 in test [1] (setting [3]) was 2.7 µM; in test [1] (setting [4]), 0.79 µM; in test [2] (setting [5]) it was more than 100 µM; in test [2] (setting [6]), more than 100 µM.
`CC(C)(C)N1C(=O)C2C(C1=O)[C@@H]1C=CC(=O)[C@H]2N1Cc1ccccc1` (mixture of isomers) [Example 16, endo 11-Benzyl-4-(tert-butyl)-4,11-diazatricyclo[5.3.1.0^2,6]undec-9-ene-3,5,8-trione Trifluoroacetate]: the IC50 is 5.56 µM in test [1] (setting [4]) and more than 100 µM in test [2] (setting [6]).
For `O=C1C=C[C@H]2C3C(=O)N(c4ccccc4)C(=O)C3[C@@H]1N2Cc1cc(F)ccc1F` (mixture of isomers) [Example 26, endo 11-(2,5-Difluorobenzyl)-4-phenyl-4,11-diazatricyclo[5.3.1.0^2,6]undec-9-ene-3,5,8-trione Trifluoroacetate], the IC50 in test [1] (setting [4]) was found to be 2.5 µM; in test [2] (setting [6]) it was 30.1 µM.
For `O=C1C=C[C@H]2C3C(=O)N(c4ccccc4)C(=O)C3[C@@H]1N2Cc1cccc(F)c1F` (mixture of isomers) [Example 30, endo-11-(2,3-Difluorobenzyl)-4-phenyl-4,11-diazatricyclo[5.3.1.0^2,6]undec-9-ene-3,5,8-trione Trifluoroacetate], in that order: 1.87 µM and 25.2 µM.
For `CCN1C(=O)C2C(C1=O)[C@@H]1C=CC(=O)[C@H]2N1Cc1cccc(C)c1` (mixture of isomers) [Example 48, endo-4-Ethyl-11-(3-methylbenzyl)-4,11-diazatricyclo[5.3.1.0^2,6]undec-9-ene-3,5,8-trione Trifluoroacetate], in that order: 3.63 µM and more than 100 µM.
For `CN1C(=O)C2C(C1=O)[C@@H]1C=CC(=O)[C@H]2N1Cc1ccccc1` (mixture of isomers) [Example 50, endo-11-Benzyl-4-methyl-4,11-diazatricyclo[5.3.1.0^2,6]undec-9-ene-3,5,8-trione Trifluoroacetate], in that order: 3.08 µM and more than 100 µM.
Turning to `O=C1C=C[C@H]2[C@@H]3C(=O)N(c4ccccc4)C(=O)[C@@H]3[C@@H]1N2Cc1ccc(-c2ccccc2)cc1` (relative stereo) [Example 2, exo-11-([1,1′-Biphenyl]-4-ylmethyl)-4-phenyl-4,11-diazatricyclo[5.3.1.0^2,6]-undec-9-ene-3,5,8-trione Trifluoroacetate], the IC50 in test [1] (setting [4]) stood at 1.46 µM; in test [2] (setting [6]), 65.2 µM.
Consider `CN1[C@@H]2C(=O)C=C[C@H]1[C@@H]1C(=O)N(c3ccccc3)C(=O)[C@@H]12` (relative stereo) [Example 3, exo-11-Methyl-4-phenyl-4,11-diazatricyclo[5.3.1.0^2,6]undec-9-ene-3,5,8-trione Trifluoroacetate], for which the IC50 in test [1] (setting [3]) came to 3.09 µM; in test [1] (setting [4]) it was 1.12 µM; in test [2] (setting [5]) it was 44 µM; in test [2] (setting [6]), 23 µM.
For the compound `Cc1ccc(CN2[C@@H]3C(=O)C=C[C@H]2[C@@H]2C(=O)N(c4ccccc4)C(=O)[C@@H]23)cc1` (relative stereo) [Example 4, exo-11-Methylbenzyl-4-phenyl-4,11-diazatricyclo[5.3.1.0^2,6]undec-9-ene-3,5,8-trione Trifluoroacetate], the IC50 in test [1] (setting [4]) was determined as 1.18 µM; in test [2] (setting [6]) it was 55.6 µM.
As to `O=C1C=CC2C3C(=O)N(c4ccccc4)C(=O)C3C1N2Cc1cccc(C(F)(F)F)c1F` (stereo not drawn) [Example 44, exo-11-(2-Fluoro-3-(trifluoromethyl)benzyl)-4-phenyl-4,11-diazatricyclo-[5.3.1.0^2,6]undec-9-ene-3,5,8-trione Trifluoroacetate], the IC50 in test [1] (setting [4]) amounted to 2.33 µM.
